# “Also recorded” adds a separate entry of the source.
# Assays:
# CDC37–CRAF interaction = test: Co-IP of CDC37-FLAG with CRAF-HA in HCT116; assay type: cell-based; details: HCT116, 5 µM braftide, three biological replicates
# BRAF kinase domain = test: Hydrogen–deuterium exchange MS; assay type: binding, human; details: BRAF^KD 10 μM, braftide 30 μM, pH 7.4, 20 s to 4.5 h, duplicate HDX–MS
# Procedure: The 6XHIS-BRAF KD (residues 442–723, supplementary information 1) was purified as previously reported ([39]) with the human sequence expressed in Escherichia coli. The KD contains 16 solubilizing mutations (I543A, I544S, I551K, Q562R, L588N, K630S, F667E, Y673S, A688R, L706S, Q709R, S713E, L716E, S720E, P722S, and K723G), which were determined to preserve kinase activity and increase protein expression in E. coli. Mutations of the 16 residues are not involved in MEK1 interactions ([40], [41]). […] Protein induction was induced by 1 mM IPTG, 16 °C in a shaking incubator, 200 RPM. The pellet was lysed in a buffer containing 50 mM Hepes (pH 7.4), 250 mM NaCl, 50 mM KCl, 10 mM imidazole, 10 mM β-mercaptoethanol, 10% glycerol, and 1X protease inhibitor (Roche) under sonication. […] Protein fractions were analyzed on SDS-PAGE, pooled, and flash frozen for analytical use.
# The exchange times varied from 20 s to 4.5 h. […] Peptides were identified through MS/MS analysis of nondeuterated samples, with data analyzed using SEQUEST (Thermo Proteome Discoverer) against a database containing sequences of BRAF^KD, braftide, pepsin, potential contaminants, and decoy proteins. Deuterated samples were analyzed using ExMS2 software (developed by Englander Lab at University of Pennsylvania).
# BRAF–CRAF protein levels = details: cited from earlier work
# Text: RAF family members are known clients of the HSP90–CDC37 chaperone complex and rely on their interaction with the CDC37–HSP90 chaperone complex to maintain basal protein stability ([4]). […] Although the HSP90 and CDC37 interface is vast and dynamic ([7]), the αC helix–β4 loop is a well-defined structural motif conserved across RAF and other kinases ([29]). The RAF DIF, being ...
# [1] = test system: selected kinases in HCT116 cells; test: Immunoblot of selected kinases in HCT116 cells; assay type: cell-based; details: Western blot; for protein levels of Chk2, PKCδ, and SRPK1: HCT116, braftide, Fig. S12A
# Procedure: (§1) Western blot band densities were quantified with ImageJ software (National Institutes of Health) and normalized to the indicated loading control. Statistical significance was determined through one-/two-way ANOVA, where indicated, followed by Tukey's honest significant difference post hoc test with corresponding p values (∗p < 0.05, ∗∗p < 0.002, ∗∗∗p < 0.0002, and ∗∗∗∗p < 0.0001). All graph bars represent the mean ± SD with individual data points per biological replicate with corresponding p values.
# HEK293 cells = test: Annexin V apoptosis assay, HEK293; assay type: cell-based, human; details: 0, 5, 10, 25, 50, 75, and 100 μM braftide, 4 h, n = 3
# Procedure: HEK293 cells and HCT116 cells were treated with either control or braftide at the indicated concentrations for 4 h. After treatment, both the floating and adherent cell populations were collected and adjusted with PBS (final concentration: 1 × 10^5 cells/ml). The cells were then mixed with the Annexin V (Cytex; FCCH100108) reagent in a 5:1 ratio (100 μl of cells mixed with 20 μl of Annexin V reagent) and allowed to stain in the dark, at room temperature for 15 min. The cells were then analyzed on a Guava Muse Cell Analyzer (Millipore).
# CRAF = CRAF ubiquitination (IP of MBP-CRAF-FLAG, ubiquitin immunoblot); assay type: cell-based, human (HEK293); details: HEK293, MBP-CRAF-FLAG, 50 μM braftide, bortezomib pretreatment
# Procedure: HEK293 cells were seeded at 1(10)^6 cells per well for a 6-well plate or 5(10)^6 for 10 cm dishes and incubated until 40% to 60% confluency. Transfection was carried out using a 1:3 DNA:PEI-MAX ratio in OPTI-MEM and allowed 48 h for protein expression. For peptide assays, 48 h post-transfection, cells were treated with TAT–braftide carried in OPTI-MEM at indicated concentrations. Cells were harvested in cold PBS. Harvested cells were lysed in 4% SDS or modified radioimmunoprecipitation assay (RIPA) for co-IP experiments. Quantification of total protein by the bicinchoninic acid assay was carried out according to the manufacturer's protocols (Pierce; catalog no.: 23225).
# Transfected HEK293 cells were treated with the indicated treatments and harvested in cold PBS. […] Samples were analyzed via immunoblot.
# as §1, with “All graph bars represent the mean ± SD with individual data points per biological replicate with corresponding p values.” left out
# RAF kinase = details: in vitro and in cells; cited from earlier work
# Text: The sequence of braftide mirrors the residues spanning the tail end of the αC helix and a region known as the αC helix–β4 loop, which includes three key residues: BRAF R509, L515, and M517, critical for RAF dimerization.
# WM3629 cells = test: WST-1 cell viability assay, WM3629; assay type: cell-based; details: WM3629, WST-1, 24 h
# Procedure: HCT116 and WM3629 cells were seeded onto polylysine-coated, clear-bottomed, 96-well plates at 15(10)^3 cells per well and allowed to incubate for 24 h. Cells were treated with braftide and 17-AAG mixtures at indicated concentrations for 24 h (37 °C). The WST-1 cell viability assay was carried out according to the manufacturer's protocols (Roche; 11644807001) for 4 h, and absorbance readings were taken at 450 nM in a CLARIOstar plate reader. For the dose–response curves of braftide and 17-AAG, the data were fit to the 4-parameter logistic equation (dose–response fitting equation) in GraphPad Prism (Dotmatics): y=A1+(A2−A1)÷(1+10^(LOGx0−x)p)
# Error bars are indicative of the SEM of each point.
substance,measurement,setting,value
GRKKRRQRRRPQ-miniPEG-TRHVNILLFM [Braftide],CDC37–CRAF interaction,CDC37–CRAF interaction,decreases its association with coimmunoprecipitated BRAF-V5 and CRAF-HA
same,CDC37–CRAF interaction,CDC37–CRAF interaction; listed as braftide,reduced the CDC37–RAF interaction at lower doses than in HEK293 cells
same,braftide binding region on BRAF KD / change in deuterium uptake,BRAF kinase domain,slows deuterium incorporation compared to apo BRAF^KD; also recorded: essentially no change except in the dimer interface region
same,braftide binding region on BRAF KD / change in deuterium uptake,BRAF kinase domain; listed as braftide,spanning amino acids 496 to 515
same,degradation of BRAF–CRAF protein levels,BRAF–CRAF protein levels,induces the degradation of BRAF–CRAF protein levels through the ubiquitin-26s proteasomal degradation system
same,protein expression levels of downregulated kinases,"[1]; HCT116, 10 μM braftide, 1 h, n = 9","reduced protein expression levels of GSK3α, S6, AKT1, TAK, FAK, BRAF, CRAF, MEK1/2, and ERK1/2"
same,"protein levels of Chk2, PKCδ, and SRPK1",[1],unaffected by Braftide treatment
same,"protein levels of Chk2, PKCδ, and SRPK1",[1]; listed as braftide,protein levels of these kinases remain unchanged after braftide treatment
same,"apoptosis (Annexin V), HEK293",HEK293 cells,triggers apoptosis
same,"apoptosis (Annexin V), HEK293",HEK293 cells; listed as braftide,triggered dose-dependent apoptosis
same,CRAF ubiquitination,CRAF,increased CRAF ubiquitination
same,RAF kinase activity,RAF kinase,inhibits RAF kinase activity
same,paradoxical activation induced by ATP-competitive inhibitors,RAF kinase,"mitigates paradoxical activation induced by ATP-competitive inhibitors, both in vitro and in cells"
same,"synergy of braftide and 17-AAG, WM3629",WM3629 cells,synergy between braftide and 17-AAG

# Source: publication PMC12830207, “Targeting the protein–protein interaction between the CDC37 cochaperone and client kinases by an allosteric RAF dimer breaker” (The Journal of Biological Chemistry, 2025)
